According to patent US10183931B2, “Rho kinase inhibitors” (priority 2012, dated 2019):
Entries after “also recorded” stand apart in the source; their conditions may differ.

Columns and labels:
human CD4+ T cells [1] = experiment: Foxp3+ cells among CD4+ T cells after Th17 skewing activation; assay type: cell-based; settings: 5 days Th17 skewing activation
STAT3 phosphorylation = STAT3 phosphorylation in T cells; assay type: cell-based, human
[2] = test system: CD4+ T cells from RA patients; experiment: cytokine secretion ex vivo by CD3/CD28 stimulated CD4+ T cells from RA patients; assay type: cell-based, human
human Tregs = experiment: Treg suppression of IL-17 secretion in CD4+CD25- effector T cells; assay type: cell-based; settings: Tregs treated 3 hours; Treg:Teff 1:4 and 1:9
human CD4+ T cells [3] = experiment: cytokine secretion by anti-CD3/CD28 stimulated CD4+ T cells in vitro; assay type: cell-based; settings: anti-CD3/CD28 stimulation
human CD4+ T cells [4] = experiment: T cell proliferation in response to TCR stimulation in vitro; assay type: cell-based
[5] = test system: TGF-β-induced phosphorylation; experiment: TGF-β-induced phosphorylation of STAT3, MLC and SMAD2/3 in Tregs; assay type: cell-based, human
ROCK1 = ROCK1 (Homo sapiens (Human), UniProt Q13464); settings: read-out: ROCK1 IC50; Z′-LYTE, 5 uM ATP
ROCK1, sequence (Q13464 1-535 limits assumed): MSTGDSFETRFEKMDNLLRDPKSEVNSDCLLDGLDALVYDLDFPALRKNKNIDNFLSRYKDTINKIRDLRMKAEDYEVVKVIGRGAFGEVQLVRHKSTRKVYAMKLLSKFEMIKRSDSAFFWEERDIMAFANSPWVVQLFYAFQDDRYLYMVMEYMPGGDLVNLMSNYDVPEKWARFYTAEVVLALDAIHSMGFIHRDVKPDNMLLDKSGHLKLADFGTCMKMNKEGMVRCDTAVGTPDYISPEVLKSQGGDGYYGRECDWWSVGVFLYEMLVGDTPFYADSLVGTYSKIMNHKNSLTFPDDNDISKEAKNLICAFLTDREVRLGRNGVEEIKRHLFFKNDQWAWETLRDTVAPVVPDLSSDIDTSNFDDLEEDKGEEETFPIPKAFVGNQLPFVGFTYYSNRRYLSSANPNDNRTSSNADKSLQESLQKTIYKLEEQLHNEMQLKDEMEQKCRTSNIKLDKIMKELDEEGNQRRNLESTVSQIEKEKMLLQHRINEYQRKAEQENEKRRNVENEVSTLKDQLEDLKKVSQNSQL
Text: (§1) Dose response curves for Rho-kinase inhibition were derived from a Invitrogen Z′-LYTE™ Kinase Assay Kit (Invitrogen catalog number PV3793). Purified active ROCK1 and ROCK2 were obtained from Invitrogen (catalog numbers ROCK1, PV3691 and ROCK2, PV3759). The kit components include a coumarin and fluorescein labeled peptide based on myosin light chain 2 ([sequence]), a proprietary protease containing development reagent and a proprietary Stop buffer used to terminate the development reaction. The inhibitory activities of compounds are measured according to the manufactures protocol. Briefly, decreasing concentrations of test compounds or the known ROCK inhibitor Y-27963, are added, from 10 uM to 2.56×10^−5 uM to reaction buffer containing 50 mM HEPES pH 7.5, 10 mM MgCl2, 5 mM EGTA, and 0.05% Brij-35 and of ROCK1 at 0.18 ug/mL or ROCK2 at 0.8 ug/mL in assay dilution buffer. […] STOP reagent is then added and the reaction and immediately the coumarin and fluorescein emission signals are read on a Tecan Infinite M1000 fluorescence plate reader (excitation: 400 nm; emission 445 and 520 nm, respectively). By comparing the emission ratios of the test samples against control samples, percent phosphorylation values are calculated and the concentration of inhibitor that produces 1/2 inhibition of kinase activity (IC50) is determined using Prism.

ROCK2 = ROCK2 (Homo sapiens (Human), UniProt O75116); settings: read-out: ROCK2 IC50; Z′-LYTE, 12 uM ATP
ROCK2, sequence (O75116 5-554 limits assumed): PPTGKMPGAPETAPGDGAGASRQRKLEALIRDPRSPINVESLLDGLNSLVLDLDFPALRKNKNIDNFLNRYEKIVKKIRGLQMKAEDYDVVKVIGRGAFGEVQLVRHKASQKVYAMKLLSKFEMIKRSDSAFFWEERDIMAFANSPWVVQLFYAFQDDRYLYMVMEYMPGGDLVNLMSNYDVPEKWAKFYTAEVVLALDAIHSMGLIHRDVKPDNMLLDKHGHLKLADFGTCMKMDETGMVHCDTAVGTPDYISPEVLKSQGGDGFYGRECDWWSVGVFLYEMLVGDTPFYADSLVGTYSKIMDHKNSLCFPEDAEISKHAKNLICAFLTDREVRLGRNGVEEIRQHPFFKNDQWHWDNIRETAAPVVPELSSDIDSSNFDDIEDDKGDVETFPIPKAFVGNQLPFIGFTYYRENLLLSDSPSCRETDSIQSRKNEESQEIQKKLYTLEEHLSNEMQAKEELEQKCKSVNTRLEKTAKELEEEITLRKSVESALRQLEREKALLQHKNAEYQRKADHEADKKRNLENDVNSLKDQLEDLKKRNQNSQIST
Text: as §1

[6] = RA patients, ex vivo, TCR stimulation

IC50 (ROCK1) [µM]	IC50 (ROCK2) [µM]	Structure (SMILES)	percentage of Foxp3+ cells (human CD4+ T cells [1])	phosphorylation of STAT3 (STAT3 phosphorylation; T cells, two experimental designs)	STAT3 phosphorylation (STAT3 phosphorylation; Th17-skewing conditions 5 days, then treatment 3 hours)	frequencies of IL-17 and IFN-γ-producing cells ([2]; 2 RA patients, intracellular staining)	secretion of IFN-γ [2, 6]	secretion of IL-17 [2, 6]	secretion of IL-21 [2, 6]	ability of Tregs to suppress IL-17 secretion in CD4+CD25- effector T cells (human Tregs)	inhibition of IFN-γ secretion (human CD4+ T cells [3])	inhibition of IL-2 secretion (human CD4+ T cells [3])	IL-17 secretion (human CD4+ T cells [3]; dose-dependent)	IL-21 secretion (human CD4+ T cells [3]; dose-dependent)	ability to proliferate in response to TCR stimulation (human CD4+ T cells [4])	phosphorylation of SMAD2/3 [5]	TGF-β-induced MLC phosphorylation ([5]; dose-dependent)	TGF-β-induced STAT3 phosphorylation ([5]; dose-dependent)
		CC(C)NC(=O)COc1cccc(-c2nc(Nc3ccc4[nH]ncc4c3)c3ccccc3n2)c1 [KD025]	significantly increased	inhibits; also recorded: significantly down-regulates	reduced	significantly reduced	inhibits; also recorded: significantly down-regulated	inhibits; also recorded: significantly down-regulated	inhibits; also recorded: significantly down-regulated	significantly increased	less robust and significant only at high dose (10 μM)	observed only at the highest concentration (10 μM)	inhibits; also recorded: significantly inhibited	inhibits; also recorded: significantly inhibited	inhibits; also recorded: down-regulated	remains intact	down-regulates	down-regulates
> 2	> 5.5	CC(N)c1cccc(-c2nccc(Nc3ccc4[nH]ncc4c3)n2)c1 (centres unmarked) [Example 147, N-(2-(3-(1-aminoethyl)phenyl)pyrimidin-4-yl)-1H-indazol-5-amine]																
> 10	> 10	CC(C)NC(=O)COc1cccc(-c2nc(Nc3ccc4[nH]ncc4c3)cc(C(F)(F)F)n2)c1 [Example 169]																
